Literature values, collected in patent publication US6387915B2, “Isoxazole-sulfonamide endothelin antagonists” (Pfizer Inc., priority 2000, dated 2002).

Legend:
neointimal formation = settings: S. Douglas et al., Circ. Res, 75, 1994
[1] = hypertensive patients; H. Krum et al., New Eng. J. Med. (1998) 338, 784-790
[2] = in man; Hypertension (1999) 33, 581-585

Structure (SMILES): CCCOc1ccc2c(c1)[C@@H](c1ccc(OC)cc1OCC(=O)O)[C@H](C(=O)O)[C@H]2c1ccc2c(c1)OCO2 [SB-209670]
- reduction in neointimal formation relative to control animals (neointimal formation): 50%

Structure (SMILES): COc1ccccc1Oc1c(NS(=O)(=O)c2ccc(C(C)(C)C)cc2)nc(-c2ncccn2)nc1OCCO [Bosentan]
- effect on blood pressure [1]: decreased blood pressure

Structure (SMILES): CCCC[C@@H](NC(=O)[C@@H](Cc1cn(C(=O)OC)c2ccccc12)NC(=O)[C@H](CC(C)(C)C)NC(=O)N1[C@H](C)CCC[C@@H]1C)C(=O)O [BQ-788]
- effect on peripheral resistance [2]: increase peripheral resistance
